Laboratory results as given in PubChem BioAssay (NCI).
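These data come from cells grown in 96-well plates and exposed to compound for 48 hours at five concentrations. Here, GI50 denotes the concentration required for 50% inhibition of growth. TGI denotes the concentration required for complete inhibition of growth.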 Where a SMILES comes first, the peptide text is derived from it. The star is where a group is joined. Boc = CC(C)(C)OC(=O)*; Bz = O=C(c1ccccc1)*

Legend:
Assay in all cases: NCI anticancer screen, dose series, 48 h
IGROV1 ovarian = system: IGROV1 ovarian
K-562 leukemia = system: K-562 leukemia
DU-145 prostate = system: DU-145 prostate
NCI-H460 lung = system: NCI-H460 lung
SF-268 CNS = system: SF-268 CNS
HCT-15 colon = system: HCT-15 colon
OVCAR-5 ovarian = system: OVCAR-5 ovarian
TK-10 renal = system: TK-10 renal
OVCAR-3 ovarian = system: OVCAR-3 ovarian

| SMILES | TGI (IGROV1 ovarian) [µM] | TGI (K-562 leukemia) [µM] | TGI (DU-145 prostate) [µM] | TGI (NCI-H460 lung) [µM] | TGI (SF-268 CNS) [µM] | TGI (HCT-15 colon) [µM] | TGI (OVCAR-5 ovarian) [µM] | TGI (TK-10 renal) [µM] | TGI (OVCAR-3 ovarian) [µM] | GI50 (IGROV1 ovarian) [µM] | GI50 (K-562 leukemia) [µM] | GI50 (NCI-H460 lung) [nM] | GI50 (SF-268 CNS) [µM] | GI50 (TK-10 renal) [nM] | GI50 (OVCAR-3 ovarian) [nM] | GI50 (OVCAR-5 ovarian) [µM] |
| --- | --- | --- | --- | --- | --- | --- | --- | --- | --- | --- | --- | --- | --- | --- | --- | --- |
| CC(NC(=O)C(Cc1ccc(OC(=O)c2ccccc2)cc1)NC(=O)OC(C)(C)C)C(=O)NC(Cc1ccccc1)C(=O)NCC(N)=O (configuration not stated) (Boc-Y(Bz)AFG-NH2; configuration not given here) | 40.7 | 57.4 | 42.3 | 33.7 | 43 | > 100 | 40.3 | 41.4 | – | – | – | – | – | – | – | – |
| COc1cc(Cc2cc3c(c(C(=O)O)c2Br)OCO3)cc(OC)c1OC | > 100 | > 100 | > 100 | > 100 | – | > 100 | > 100 | > 100 | > 100 | – | – | – | – | – | – | – |
| COc1ccc(C2=CC(c3ccccc3)n3nnnc3N2)cc1 (configuration not stated) | > 100 | > 100 | > 100 | > 100 | > 100 | > 100 | > 100 | – | > 100 | – | – | – | – | – | – | – |
| CC1(C)[C@H](C(=O)O)N2C(=O)[C@@H](NS(=O)(=O)c3ccc([N+](=O)[O-])cc3)[C@H]2S1(=O)=O | > 100 | > 100 | > 100 | > 100 | > 100 | > 100 | > 100 | > 100 | > 100 | – | – | – | – | – | – | – |
| COc1ccccc1/C=C/C1=NN(c2cccc(S(=O)(=O)O)c2)C2(C1)SCC(=O)N2c1nc2ccccc2s1 (configuration not stated) | > 100 | > 100 | > 100 | > 100 | > 100 | > 100 | > 100 | > 100 | – | – | – | – | – | – | – | – |
| O=C(O)c1ccccc1NC(c1ccccc1)c1ccc2cccnc2c1O (configuration not stated) | > 100 | 53.3 | > 100 | 63.4 | > 43.5 | > 58.9 | 58 | 51.1 | 14.4 | – | – | – | – | – | – | – |
| CCOC(=O)C1(C(N)=O)C(=O)c2ccncc2C1=O (configuration not stated) | > 100 | > 100 | > 100 | > 100 | > 100 | > 100 | > 100 | – | > 100 | – | – | – | – | – | – | – |
| CC(=N\N)/C(C)=N/N=C(C)/C(C)=N/N=C(C)/C(C)=N/N=C(C)/C(C)=N/N | > 100 | > 100 | > 100 | > 100 | > 100 | > 100 | > 100 | > 100 | > 100 | – | – | – | – | – | – | – |
| COc1cc2c[n+](C)c3c4cc(OC)c(OC)cc4c(OC)cc3c2cc1OC | – | > 41.5 | > 65.3 | > 100 | 18.7 | > 100 | > 100 | > 100 | > 34.6 | – | – | – | – | – | – | – |
| C=CCOC(=O)N1[C@H]2C#C/C=C\C#C[C@]3(O)C(=O)C[C@H](C)[C@]24O[C@]43C2=CC(=O)C=CC21OC (some centres not stated) | 67.3 | > 100 | > 100 | 47.8 | > 100 | > 100 | > 100 | 63.7 | – | – | – | – | – | – | – | – |
| CC(=O)OC1C(C)OC(Oc2c(C)c3c4c(c2O)[C@@H](C)CC[C@@H]4[C@@H](C)C[C@H]3C=C(C)C)C(O)C1O (some centres not stated) | > 100 | 5.27 | – | > 100 | 55.3 | – | – | 3.67 | 3.33 | 46.2 | 2.24 | 3570 | 16 | 1790 | 1700 | – |
| O=c1cc(NCCCCCO)[nH]c(=O)[nH]1 | > 100 | > 100 | – | > 100 | > 100 | > 100 | > 100 | > 100 | > 100 | – | – | – | – | – | – | – |
| C=C(C)C(=O)O[C@H]1C/C(CO)=C/CCC(=C)C(OC(C)=O)[C@H]2OC(=O)C(=C)[C@H]12 (some centres not stated) | 48.2 | 11.7 | 37.4 | 41.7 | 10.9 | 33.6 | 88.7 | – | 18.7 | – | – | – | – | – | – | – |
| COc1ccc2nc3cc(Cl)ccc3c(NCCCN(Cc3cc(OC)c(OC)c(OC)c3)Cc3cc(OC)c(OC)c(OC)c3)c2c1 | 35.1 | 3.77 | 27.3 | 23.6 | 41.7 | – | 27.9 | 44.1 | 34.6 | – | – | – | – | – | – | – |
| Fc1ccc2[nH]cc(-c3nc(-c4c[nH]c5ncccc45)cs3)c2c1 | > 100 | > 100 | – | > 100 | – | – | > 100 | > 100 | – | 4.46 | 5.03 | 2110 | – | > 100000 | – | > 100 |
| O=C(Nn1c(-c2ccccc2)nc2ccccc2c1=O)c1ccc(CS)cc1 | 88.3 | > 100 | > 100 | > 100 | > 100 | – | > 100 | > 100 | > 100 | – | – | – | – | – | – | – |
